Assay results: patent publication US20250129067A1 (Progentos Therapeutics, Inc., priority 2021, published 2025)
Several values for one entry are separate records, joined by “and”; a condition that tells them apart may be missing. Equal entries are not always repeated.

Key:
[1] = system: Oligodendrocyte progenitor cells (OPCs); test: In vitro OPC differentiation assay, GPR17 expression (immunocytochemistry); conditions: 3 μM (10× concentration, final 0.3 μM); 72 hours; fold change over vehicle
[2] = system: Oligodendrocyte progenitor cells (OPCs); test: In vitro OPC differentiation assay, MBP expression (immunocytochemistry); conditions: 72 hours of treatment; fold change over vehicle
Procedure: Cortices from postnatal day (P) 1-3 rats were dissected and collected into ice cold Hank's Balanced Salt Solution (HBSS). […] Briefly, the cortical cell suspension was centrifuged and washed with buffer (0.5% BSA in PBS) and labeled with Anti-A2B5 MicroBeads (10 μL beads per 1×10^7 cells) for 15 minutes at 4° C. Following the incubation, cells were washed once with BSA buffer to remove unlabeled beads. A2B^5 positive cells were eluted on the column using the AutoMACS® (Miltenyi, as per manufacturer's protocol using “possel-s” program). Eluted cells were further washed twice with OPC growth media. Cell count was performed using Countess III cell counter (ThermoFisher; AMQAX2000) and cells were plated.
A2B5+ OPCs were plated in poly-d-lysine (PDL) coated T75 flask at a density of ˜3 million cells per flask. […] TrypLE was normalized by adding 10 mL growth media and cells were centrifuged at 1400 rpm for 10 minutes. […] The plates were allowed to sit at room temperature for 15 minutes to ensure proper dispersion of cells in a well. The plates were then transferred to the incubator (37° C.; 5% CO2).
Cells were then incubated for 72 hours at 37° C., 5% CO2 before immunostaining for MBP marker expression.
Following 72 hours of treatment, cells were fixed with 4% paraformaldehyde for 15 minutes then washed three times in DPBS. Prior to staining, cells were blocked for 15 minutes in 10% normal goat serum containing 1% BSA and 0.1% Triton X-100 in DPBS. Primary antibody (MBP @ 1:2000; Abcam AB7349) was applied to cells overnight at 4° C. in incubation solution containing 1% normal goat serum, 1% BSA, and 0.1% Triton X-100 in DPBS.
The number of differentiated MBP+ cells was normalized to the total nuclei count and percent differentiated MBP+ cells were reported.

[3] = system: GPR17+ cells (newly differentiated oligodendrocytes); test: In vivo OPC differentiation, GPR17+ cells in brain; conditions: Mus musculus, po, 24 h, read-out: GPR17 Fold Induction (Over Vehicle)
PDGFRα = PDGFRα (Homo sapiens (Human), UniProt P16234); test: PDGFRα kinase enzyme assay (Promega PDGFRα Kinase Enzyme System, ADP-Glo); type: biochemical; conditions: 11-point dose response, 10,000 nM to 0.169 nM, 150 uM ATP, BLQ = below limit of quantitation; for IC50: read-out: IC50 Values on PDGFRα Kinase Inhibition, IC50
PDGFRα, sequence (P16234 24-1089): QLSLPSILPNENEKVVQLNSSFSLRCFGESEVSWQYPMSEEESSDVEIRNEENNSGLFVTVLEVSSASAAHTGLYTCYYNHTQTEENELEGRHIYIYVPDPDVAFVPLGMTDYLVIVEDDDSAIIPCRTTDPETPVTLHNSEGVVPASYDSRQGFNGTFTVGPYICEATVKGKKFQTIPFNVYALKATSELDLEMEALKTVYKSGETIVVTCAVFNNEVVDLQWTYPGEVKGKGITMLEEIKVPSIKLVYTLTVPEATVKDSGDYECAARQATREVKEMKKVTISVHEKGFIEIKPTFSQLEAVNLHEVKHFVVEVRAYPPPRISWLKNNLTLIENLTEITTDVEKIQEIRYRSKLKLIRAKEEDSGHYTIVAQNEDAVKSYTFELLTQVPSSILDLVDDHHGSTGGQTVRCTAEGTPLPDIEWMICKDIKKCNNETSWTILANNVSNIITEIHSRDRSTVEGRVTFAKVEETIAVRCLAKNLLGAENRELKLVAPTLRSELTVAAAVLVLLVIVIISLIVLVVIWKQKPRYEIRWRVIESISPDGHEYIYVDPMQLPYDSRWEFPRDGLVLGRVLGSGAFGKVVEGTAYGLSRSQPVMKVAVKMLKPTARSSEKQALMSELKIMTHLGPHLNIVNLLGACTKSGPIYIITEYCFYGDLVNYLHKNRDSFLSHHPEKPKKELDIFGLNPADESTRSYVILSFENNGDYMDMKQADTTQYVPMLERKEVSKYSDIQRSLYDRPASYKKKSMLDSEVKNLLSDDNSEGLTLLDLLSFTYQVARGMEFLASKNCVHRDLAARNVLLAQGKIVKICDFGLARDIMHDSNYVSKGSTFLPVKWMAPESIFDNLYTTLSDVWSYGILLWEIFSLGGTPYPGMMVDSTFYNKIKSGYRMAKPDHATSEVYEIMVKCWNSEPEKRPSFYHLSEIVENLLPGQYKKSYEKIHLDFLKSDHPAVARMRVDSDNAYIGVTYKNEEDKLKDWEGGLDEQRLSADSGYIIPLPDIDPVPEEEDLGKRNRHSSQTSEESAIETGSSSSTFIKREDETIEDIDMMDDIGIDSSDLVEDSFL
Outline: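 Read-out was ADP-Glo: remaining ATP depleted, ADP converted to luminescence and compared with a standard curve.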

| Structure (SMILES) | GPR17 Fold Induction (Over Vehicle; 3 μM) [1] | MBP Fold Induction (Over vehicle) [2] | fold induction at 10 mg/kg [3] | IC50 (PDGFRα) [nM] | fold induction at 3 mg/kg [3] | fold induction at 30 mg/kg [3] | IC50 Values on PDGFRα Kinase Inhibition, IC50 (nM) (PDGFRα) | fold induction at 6 mg/kg [3] |
| --- | --- | --- | --- | --- | --- | --- | --- | --- |
| Cn1cc(-c2ccc3c(N4CCN(c5ncc(Cc6ccncc6)cn5)CC4)cnn3c2)cn1 [Compound 179, 6-(1-methyl-1H-pyrazol-4-yl)-3-(4-(5-(pyridin-4-ylmethyl)pyrimidin-2-yl)piperazin-1-yl)pyrazolo[1,5-a]pyridine] | 5.37 | 10.12 | 8.36 | 662 |  |  |  |  |
| CC(C)(C)OC(=O)N1CCN(c2cnn3cc(-c4cnn(CCCN5CCOCC5)c4)ccc23)CC1 [Compound 233, tert-butyl 4-(6-(1-(3-morpholinopropyl)-1H-pyrazol-4-yl)pyrazolo[1,5-a]pyridin-3-yl)piperazine-1-carboxylate] | 9.27 | 46.15 | 2.16 | 692 |  |  |  |  |
| CC(C)n1cc(-c2ccc3c(N4CCN(C(=O)OC(C)(C)C)CC4)cnn3c2)cn1 [Compound 234, tert-butyl 4-(6-(1-isopropyl-1H-pyrazol-4-yl)pyrazolo[1,5-a]pyridin-3-yl)piperazine-1-carboxylate] | 7.16 | 11.56 |  | 311 | 1.15 |  |  |  |
| Cn1cc(-c2ccc3c(N4CCN(c5ccc(Cc6ccccc6)cn5)CC4)cnn3c2)cn1 [Compound 249, 3-[4-(5-benzylpyridin-2-yl)piperazin-1-yl]-6-(1-methyl-1H-pyrazol-4-yl)pyrazolo[1,5a]pyridine] | 6.40 | 1.64 |  | 1260 |  | 10.6 |  |  |
| Cn1cc(-c2ccc3c(N4CCN(c5ncc(Cc6cccnc6)cn5)CC4)cnn3c2)cn1 [Compound 251, 6-(1-methyl-1H-pyrazol-4-yl)-3-{4-[5-(pyridin-3-ylmethyl)pyrimidin-2-yl]piperazin-1-yl}pyrazolo[1,5-a]pyridine] | 4.97 | 9.20 |  | 1160 | 1.22 |  |  |  |
| COc1ccc(Cc2cnc(N3CCN(c4cnn5cc(-c6cnn(C)c6)ccc45)CC3)nc2)cc1 [Compound 254, 3-(4-(5-(4-methoxybenzyl)pyrimidin-2-yl)piperazin-1-yl)-6-(1-methyl-1H-pyrazol-4-yl)pyrazolo[1,5-a]pyridine] | 6.77 | 4.04 | 10.7 | 267 |  |  |  |  |
| CC(c1ccc(F)cc1)c1cnc(N2CCN(c3cnn4cc(-c5cnn(C)c5)ccc34)CC2)nc1 (centres unmarked) [Compound 258, 3-(4-(5-(1-(4-fluorophenyl)ethyl)pyrimidin-2-yl)piperazin-1-yl)-6-(1-methyl-1H-pyrazol-4-yl)pyrazolo[1,5-a]pyridine] | 9.21 | 16.36 |  | 803 | 2.82 |  |  |  |
| C[C@@H](OC(=O)N1CCN(c2cnn3cc(-c4cnn(C)c4)ccc23)CC1)c1ccccn1 [Compound 260, (1R)-1-pyridin-2-ylethyl 4-[6-(1-methyl-1H-pyrazol-4-yl)pyrazolo[1,5-a]pyridin-3-yl]piperazine-1-carboxylate] | 6.26 | 11.66 | 2.79 | 377 |  |  |  |  |
| CC(OC(=O)N1CCN(c2cnn3cc(-c4cnn(C)c4)ccc23)CC1)c1ccc(Cl)cc1 (centres unmarked) [Compound 265, 1-(4-chlorophenyl)ethyl 4-(6-(1-methyl-1H-pyrazol-4-yl)pyrazolo[1,5-a]pyridin-3-yl)piperazine-1-carboxylate] | 7.72 | 20.78 |  |  | 7.92 |  | BLQ |  |
| Cc1ccc([C@@H](C)OC(=O)N2CCN(c3cnn4cc(-c5cnn(C)c5)ccc34)CC2)cc1 [Compound 267, (1R)-1-(4-methylphenyl)ethyl 4-[6-(1-methyl-1H-pyrazol-4-yl)pyrazolo[1,5-a]pyridin-3-yl]piperazine-1-carboxylate] | 5.62 | 2.33 |  |  | 5.75 |  | BLQ | 7.52 |
| C[C@@H](OC(=O)N1CCN(c2cnn3cc(-c4cnn(C)c4)ccc23)CC1)c1cccc2ccccc12 [Compound 269, (1R)-1-(1-naphthyl)ethyl 4-[6-(1-methyl-1H-pyrazol-4-yl)pyrazolo[1,5-a]pyridin-3-yl]piperazine-1-carboxylate] | 5.70 | 13.54 |  | 138 | 0.91 |  |  |  |
| C[C@H](OC(=O)N1CCN(c2cnn3cc(-c4cnn(C)c4)ccc23)CC1)c1ccc(Cl)cc1 [Compound 271, (1S)-1-(4-chlorophenyl)ethyl 4-[6-(1-methyl-1H-pyrazol-4-yl)pyrazolo[1,5-a]pyridin-3-yl]piperazine-1-carboxylate] | 6.67 | 2.21 |  | 1490 | 0.83 |  |  |  |
| Cn1cc(-c2ccc3c(N4CCN(C(=O)OCc5cccc(C#N)c5)CC4)cnn3c2)cn1 [Compound 272, 3-cyanobenzyl 4-[6-(1-methyl-1H-pyrazol-4-yl)pyrazolo[1,5-a]pyridin-3-yl]piperazine-1-carboxylate] | 6.11 | 40.13 | 5.93 | 865 | 2.47 |  |  |  |
| C[C@@H](NC(=O)N1CCN(c2cnn3cc(-c4cnn(C)c4)ccc23)CC1)c1ccc(Cl)cc1 [Compound 274, N-[(1R)-1-(4-chlorophenyl)ethyl]-4-[6-(1-methyl-1H-pyrazol-4-yl)pyrazolo[1,5-a]pyridin-3-yl]piperazine-1-carboxamide] | 5.01 and 9.78 | 24.95 |  | 49 | 6.67 |  |  |  |
| Cn1cc(-c2ccc3c(N4CCN(C(=O)NCc5ccc(Cl)cc5)CC4)cnn3c2)cn1 [Compound 275, N-(4-chlorobenzyl)-4-[6-(1-methyl-1H-pyrazol-4-yl)pyrazolo[1,5-a]pyridin-3-yl]piperazine-1-carboxamide] | 6.70 | 2.71 |  | 67 | 5.31 |  |  |  |
| Cn1cc(-c2ccc3c(N4CCN(C(=O)N5CCC[C@@H]5c5ccc(Cl)cc5)CC4)cnn3c2)cn1 [Compound 277, 3-(4-{[(2R)-2-(4-chlorophenyl)pyrrolidin-1-yl]carbonyl}piperazin-1-yl)-6-(1-methyl-1H-pyrazol-4-yl)pyrazolo[1,5-a]pyridine] | 5.36 | 8.37 |  | 208 | 0.96 |  |  |  |
| CC1CC(OC(=O)N2CCN(c3cnn4cc(-c5cnn(C)c5)ccc34)CC2)C1 (centres unmarked) [Compound 309, 3 methylcyclobutyl 4-[6-(1-methyl-1H-pyrazol-4-yl)pyrazolo[1,5-a]pyridin-3-yl]piperazine-1-carboxylate] | 6.67 | 5.13 | 1.2 | 824 |  |  |  |  |
| C[C@@H](OC(=O)N1CCN(c2cnn3cc(-c4cnn(C)c4)ccc23)CC1)c1ccc(Cl)c(Cl)c1 [Compound 311, (1R)-1-(3,4-dichlorophenyl)ethyl 4-[6-(1-methyl-1H-pyrazol-4-yl)pyrazolo[1,5-a]pyridin-3-yl]piperazine-1-carboxylate] | 5.77 | 10.47 |  | 39.1 | 2.52 |  |  |  |
| C[C@@H](OC(=O)N1CCN(c2cnn3cc(-c4cnn(C)c4)ccc23)CC1)c1ccc2ccccc2c1 [Compound 312, (1R)-1-(2-naphthyl)ethyl 4-[6-(1-methyl-1H-pyrazol-4-yl)pyrazolo[1,5-a]pyridin-3-yl]piperazine-1-carboxylate] | 9.00 | 18.49 |  | 145 | 1.53 |  |  |  |
| C[C@@H](OC(=O)N1CCN(c2cnn3cc(-c4cnn(C)c4)ccc23)CC1)c1ccc(C(F)(F)F)cc1 [Compound 313, (1R)-1-[4-(trifluoromethyl)phenyl]ethyl 4-[6-(1-methyl-1H-pyrazol-4-yl)pyrazolo[1,5-a]pyridin-3-yl]piperazine-1-carboxylate] | 10.56 | 116.12 |  |  | 10.5 |  | BLQ |  |
| Cn1cc(-c2ccc3c(N4CCN(C(=O)OCc5ccc(C#N)cc5)CC4)cnn3c2)cn1 [Compound 316, 4-cyanobenzyl 4-[6-(1-methyl-1H-pyrazol-4-yl)pyrazolo[1,5-a]pyridin-3-yl]piperazine-1-carboxylate] | 9.10 | 34.99 |  | 194 | 2.36 |  |  |  |
